The conditions of data set [1]: unformulated CAP; cited from earlier work.
Data set [2] is described as follows: Particle size by dynamic light scattering (DLS).

Data on one compound can be found in patent publication US20190091162A1, “POLYMER-LIPID HYBRID NANOPARTICLES OF CAPECITABINE UTILIZING MICROMIXING AND CAPECITABINE AMPHIPHILIC PROPERTIES” (Jingjie PTM BioLab (Hangzhou) Co., Ltd., priority 2017, published 2019).

With `CCCCCOC(=O)Nc1nc(=O)n([C@@H]2O[C@H](C)[C@@H](O)[C@H]2O)cc1F` [CAP, N4-pentyloxycarbonyl-5-deoxy-5-fluoro-cytidine], the “Time within which the drug by itself is eliminated from the body” value in data set [1] is 0.5 to 1 h. Also, the “Size of the particles formed by CAP” value in data set [2] (CAP in DI water, DLS) is 2-30 nm. Further, the “Stability of CAP micelles” value in data set [2] (high concentrations of CAP in DI water, size and correlation function fluctuate) is on record as “not very stable”.
